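Cultured in 96-well plates, cells were exposed to test compound for 48 hours across five concentrations. GI50 = concentration required for 50% inhibition of growth. TGI is the concentration that stops growth completely.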
Key:
Assay in all cases: growth of human tumour cells (NCI), 48 h
MDA-MB-231 breast = system: MDA-MB-231 breast
SNB-19 CNS = system: SNB-19 CNS
K-562 leukemia = system: K-562 leukemia
SK-MEL-5 melanoma = system: SK-MEL-5 melanoma
OVCAR-4 ovarian = system: OVCAR-4 ovarian
SF-539 CNS = system: SF-539 CNS
SW-620 colon = system: SW-620 colon
NCI-H522 lung = system: NCI-H522 lung
SN12C renal = system: SN12C renal
HOP-62 NSCLC = system: HOP-62 NSCLC
IGROV1 ovarian = system: IGROV1 ovarian
SK-MEL-2 melanoma = system: SK-MEL-2 melanoma
SNB-75 CNS = system: SNB-75 CNS
RPMI-8226 leukemia = system: RPMI-8226 leukemia
MCF7 breast = system: MCF7 breast
U251 CNS = system: U251 CNS
MDA-MB-435 = system: MDA-MB-435
COLO 205 colon = system: COLO 205 colon
HL-60(TB) leukemia = system: HL-60(TB) leukemia
KM12 colon = system: KM12 colon
ACHN renal = system: ACHN renal
T-47D breast = system: T-47D breast
EKVX NSCLC = system: EKVX NSCLC
SF-268 CNS = system: SF-268 CNS
HS 578T breast = system: HS 578T breast
PC-3 prostate = system: PC-3 prostate
LOX IMVI melanoma = system: LOX IMVI melanoma
SK-MEL-28 melanoma = system: SK-MEL-28 melanoma
NCI/ADR-RES ovarian = system: NCI/ADR-RES ovarian

Cc1ccc(CCC(=O)Nc2ncc(Cc3cc(Cl)ccc3Cl)s2)o1
TGI (MDA-MB-231 breast): 3350 nM | GI50 (SNB-19 CNS): 330 nM | TGI (SNB-19 CNS): 5450 nM | GI50 (K-562 leukemia): 40.1 nM | TGI (K-562 leukemia): > 100000 nM | GI50 (SK-MEL-5 melanoma): 80.4 nM | TGI (SK-MEL-5 melanoma): 5960 nM | GI50 (OVCAR-4 ovarian): 767 nM | TGI (OVCAR-4 ovarian): > 20400 nM | GI50 (SF-539 CNS): 218 nM | TGI (SF-539 CNS): 712 nM | GI50 (SW-620 colon): 69.4 nM | TGI (SW-620 colon): > 100000 nM | GI50 (NCI-H522 lung): 229 nM | TGI (NCI-H522 lung): 12900 nM | GI50 (SN12C renal): 489 nM | TGI (SN12C renal): 11100 nM | GI50 (HOP-62 NSCLC): 380 nM | TGI (HOP-62 NSCLC): 15100 nM | GI50 (IGROV1 ovarian): 334 nM | TGI (IGROV1 ovarian): 20800 nM | GI50 (SK-MEL-2 melanoma): 683 nM | TGI (SK-MEL-2 melanoma): > 58500 nM | GI50 (SNB-75 CNS): 206 nM | TGI (SNB-75 CNS): 2160 nM | GI50 (RPMI-8226 leukemia): 335 nM | TGI (RPMI-8226 leukemia): 61100 nM | GI50 (MCF7 breast): 43.9 nM | TGI (MCF7 breast): > 100000 nM | GI50 (U251 CNS): 202 nM | TGI (U251 CNS): 3390 nM | GI50 (MDA-MB-435): 28.6 nM | TGI (MDA-MB-435): 94.9 nM | GI50 (COLO 205 colon): 194 nM | TGI (COLO 205 colon): 658 nM | GI50 (HL-60(TB) leukemia): 193 nM | TGI (HL-60(TB) leukemia): 589 nM | GI50 (KM12 colon): 96.6 nM | TGI (KM12 colon): > 36300 nM | GI50 (ACHN renal): 665 nM | TGI (ACHN renal): 4850 nM | GI50 (T-47D breast): 1220 nM | TGI (T-47D breast): > 100000 nM | GI50 (EKVX NSCLC): 466 nM | TGI (EKVX NSCLC): > 100000 nM | GI50 (SF-268 CNS): 1590 nM | TGI (SF-268 CNS): > 54600 nM | GI50 (HS 578T breast): 289 nM | TGI (HS 578T breast): 7200 nM | GI50 (PC-3 prostate): 244 nM | TGI (PC-3 prostate): > 42800 nM | GI50 (LOX IMVI melanoma): 221 nM | GI50 (SK-MEL-28 melanoma): 1540 nM | TGI (SK-MEL-28 melanoma): > 100000 nM | GI50 (NCI/ADR-RES ovarian): 159 nM | TGI (NCI/ADR-RES ovarian): 1410 nM

— PubChem BioAssay (NCI)
